Experiments:
[1] = target: T1, human D3 dopamine receptor (Homo sapiens (Human), UniProt P35462); test: Radioligand binding (125I-IABN competition), D3; settings: 125I-IABN competition, HEK cell membranes expressing human D3
Description: The affinities of the target compounds were determined using radioligand binding experiments. […] Competition curves were modeled for a single site. Data from competition dose-response curves were analyzed using Tablecurve program (Jandel). IC50 values were converted to equilibrium dissociation constants (Ki values) using the Cheng and Prusoff correction.

[2] = target: T1, human D3 dopamine receptor; test: Whole Cell Adenylyl Cyclase Assay, D3; type: cell-based; settings: inhibition of forskolin (100 μM) stimulated cAMP, normalized to quinpirole; compound conc ≥10× Ki (per compound); mean ± S.E.M.
[3] = target: human D2L receptors (Homo sapiens (Human), UniProt P14416); test: [35S]GTPγS Binding Assay, CHO D2 membranes; type: biochemical; settings: antagonist vs dopamine; Ke = functional Ki; read-out: CHO-hD2 Ke
Description: Chinese hamster ovary (CHO) cells expressing human D2L and D3 receptors served as the source for membrane fractions which were washed and resuspended with assay buffer containing Mg^2+, Na^+, EGTA, and bovine serum albumin. The GTPγS binding assays were performed in a final volume of 0.5 mL for CHO D2 and 1 mL for CHO D3 containing test drug or dopamine (1 mM for D2 cells, and 100 μM for D3 cells) as indicator of binding plateau, [^35S]GTPγS (0.11 nM for CHO D2 and 0.07 nM for CHO D3, 1,250 Ci/mmole, Perkin Elmer, Boston, Mass. 02118); and cell membrane suspension (in assay buffer and GDP for final concentration of 3 μM for CHO D2 and 6 μM for CHO D3). […] The plateau binding (maximal binding stimulation) with test compound was expressed as percent of maximal binding observed with the full agonist dopamine (% Emax). Antagonist activity was assessed by testing a fixed concentration of the test compound and varying concentration of the agonist, dopamine (0.001-100 μM for CHO D2 and 0.1 nM-10 uM for CHO D3). Ke is the functional Ki (equilibrium dissociation constant) of an antagonist and is calculated according to the equation: [Test Compound]/(EC50-2/EC50-1−1), where EC50-2 is the EC50 value in the presence of the test compound and EC50-1 is the value in the absence of the test compound.

[4] = tested on: Long Evans rats; test: Food self-administration under PR schedule of reinforcement; type: in vivo, rat; settings: 3.75 mg dose vs 0; t(7)=0.43, p=0.66
Description: These studies were performed using Long Evans rats using standard protocols. Training and testing took place in ventilated and sound-attenuated operant chambers measuring 30×21×18 cm. Each chamber contained two levers, one light above each of the levers, and a food trough. Each lever was positioned 2.5 cm from the rod floor and the food trough (measuring 5×5 cm) was centered between the two levers. A different set of animals (n=8) was trained to press a lever reinforced by food under a FR1 schedule of reinforcement. […] Percentage of baseline BPs for food self-administration was analyzed using a dependent measures t-test comparing the 0 and 3.75 mg doses of 113.

[5] = tested on: Rats; test: Cue-induced reinstatement of cocaine-seeking; type: in vivo, rat; settings: 3 doses ip 20 minutes before reinstatement session
Description: Rats were trained to self-administer cocaine (1.0 mg/kg/injection) under a FR1 schedule of reinforcement in daily 3-h sessions and, after stable responding was established (as described above) the schedule was changed to FR3. After stable responding under the FR3 schedule was established, extinction training began. Stable responding was defined as follows: 12 consecutive sessions in which total rewards per session was greater than 20 and in which total rewards per session for the last three sessions was within ±10% of the mean of the three sessions. […] After extinction criteria were met each rat was tested in one 1-h reinstatement session; each rat received an ip injection of vehicle or one of 3 doses of the test compound and 20 minutes later was placed in the operant chamber. At the start of the reinstatement session the cocaine-associated cues (light on for 20 s and pump on for 4.5 s) were presented twice, once at 25 sec and again at 2 min into the session. Presses on the active lever illuminated the light and activated the pump.

T1 sequence (P35462 whole entry): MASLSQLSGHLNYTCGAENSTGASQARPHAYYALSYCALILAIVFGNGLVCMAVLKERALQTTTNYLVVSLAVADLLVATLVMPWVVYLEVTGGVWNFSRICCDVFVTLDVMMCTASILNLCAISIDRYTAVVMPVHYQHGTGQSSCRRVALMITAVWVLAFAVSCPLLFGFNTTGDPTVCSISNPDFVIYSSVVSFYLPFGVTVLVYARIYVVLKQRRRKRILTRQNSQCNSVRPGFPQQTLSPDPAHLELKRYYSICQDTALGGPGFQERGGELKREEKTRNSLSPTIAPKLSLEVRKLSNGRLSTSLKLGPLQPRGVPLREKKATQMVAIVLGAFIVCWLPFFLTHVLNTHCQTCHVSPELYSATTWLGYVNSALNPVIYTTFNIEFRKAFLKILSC
human D2L receptors, sequence (P14416 whole entry): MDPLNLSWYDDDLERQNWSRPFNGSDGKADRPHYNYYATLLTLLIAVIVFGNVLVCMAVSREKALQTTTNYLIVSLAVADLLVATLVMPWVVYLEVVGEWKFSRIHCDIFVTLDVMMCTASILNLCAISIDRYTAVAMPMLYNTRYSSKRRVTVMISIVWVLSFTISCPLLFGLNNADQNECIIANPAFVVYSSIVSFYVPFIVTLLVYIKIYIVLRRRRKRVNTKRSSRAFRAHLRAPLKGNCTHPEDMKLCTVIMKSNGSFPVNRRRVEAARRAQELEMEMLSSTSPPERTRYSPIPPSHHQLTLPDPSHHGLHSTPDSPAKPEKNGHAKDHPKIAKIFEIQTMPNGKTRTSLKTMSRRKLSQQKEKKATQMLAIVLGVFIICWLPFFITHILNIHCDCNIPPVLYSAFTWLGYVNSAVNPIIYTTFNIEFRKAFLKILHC

Q: Which results are given for `CC(C)(C)c1nc(N2CCN(CCCCNC(=O)c3cn4ccccc4n3)CC2)cc(C(F)(F)F)n1` [Compound 113, N-(4-(4-(2-(tert-Butyl)-6-(trifluoromethyl)pyrimidin-4-yl)piperazin-1-yl)butyl)imidazo[1,2-a]pyridine-2-carboxamide]?
A: Ki [1]: 4.2 ± 0.6 nM; D3 Cyclase % Inhibition Normalized [2]: 27.7 ± 7.0%; Ki [3]: 111 ± 25 nM; percentage of baseline BPs for food self-administration under PR schedule [4]: did not affect food self-administration; cue-induced reinstatement (active lever presses, 1-h test) [5]: strongly reduced in a dose-related fashion
